Experimental data published in US20220031596A1, “ANTI-AGING AGENT AND ANTI-AGING METHOD” (priority 2018, published 2022).

What was measured:
[1] = test system: melatonin concentration in the plasma; experiment: Evaluation of melatonin secretion promoting effect (plasma melatonin, 24-week oral ingestion); type: in vivo, human; conditions: for melatonin concentration in the plasma, 0 weeks (before ingestion): baseline; for melatonin concentration in the plasma, 0 weeks (before ingestion) / melatonin concentration in the plasma, 24 weeks (after ingestion) / melatonin concentration in the plasma, Change rate (24 weeks - 0 weeks): mean±SD
Experimental: In order to confirm a change in the melatonin quantity before and after ingestion of the nicotinamide mononucleotide, a test was conducted on healthy males and females aged 50 to 70 years.
As a sample of Working Example 1, a capsule formulation containing the nicotinamide mononucleotide and starch (100 mg (low dose) and 200 mg (high dose) of the nicotinamide mononucleotide in 4 capsules) (manufactured by SHINKOWA PHARMACEUTICAL Co., Ltd.) was used.
(§1) Each group consisting of five healthy males and females aged 50 to 70 years in an unbiased age group ingested the above low dose capsule formulation once a day by 4 capsules for 24 weeks (total 10 subjects, a low dose group: 100 mg/daily ingestion). On the other hand, each group consisting of five healthy males and females aged 50 to 70 years in the unbiased age group ingested the above high dose capsule formulation once a day by 4 capsules for 24 weeks (total 10 subjects, a high dose group: 200 mg/daily ingestion). In order to conduct appropriate evaluations, those who had been regularly using medical products for chronic diseases, those who had been consuming healthy foods that may affect clinical research, and those who were currently participating in other clinical researches or clinical trials, or had participated in other clinical researches or clinical trials within the last three months were excluded from the subject for the evaluation. The capsule formulations were ingested at 10 am (between meals and fasting state) together with water or lukewarm water (oral administration).
Measurement of the melatonin quantity in plasma was conducted by requesting the measurement to an external public organization according to a usual method. FIGS. 2a to 2c indicates transitions of the melatonin concentration (pg/ml) in the plasma for 24 weeks. FIG. 2a represents the transitions of the whole subjects; FIG. 2b represents the transitions of the male subjects; FIG. 2c represents the transitions of the female subjects. FIGS. 3a to 3c indicates change rates (%) of the blood melatonin concentration up to 24 weeks when the nicotinamide mononucleotide was orally administered to the subjects for 24 weeks. FIG. 3a represents the change rates of the whole subjects; FIG. 3b represents the change rates of the male subjects; FIG. 3c represents the change rates of the female subjects. Further, Table 1 indicates the numerical values of the melatonin concentration (pg/ml) in the plasma before the ingestion of the nicotinamide mononucleotide (0 weeks) and after the ingestion of the nicotinamide mononucleotide (24 weeks). In addition, the numerical values represent mean values±standard deviation.

[2] = test system: calcitonin concentration in the plasma; experiment: Evaluation of calcitonin secretion promoting effect (plasma calcitonin, 24-week oral ingestion); type: in vivo, human; conditions: for calcitonin concentration in the plasma, 0 weeks (before ingestion) / calcitonin concentration in the plasma, 24 weeks (after ingestion) / calcitonin concentration in the plasma, Change rate (24 weeks - 0 weeks): High Dose Group (200 mg/daily, oral), mean±SD; for calcitonin concentration in the plasma, 0 weeks (before ingestion): baseline
Experimental: In order to confirm a change in the calcitonin quantity before and after ingestion of the nicotinamide mononucleotide, a test was conducted on healthy males and females aged 50 to 70 years.
As a sample of Working Example 12, a capsule formulation containing the nicotinamide mononucleotide and starch (200 mg of the nicotinamide mononucleotide in 4 capsules) (manufactured by SHINKOWA PHARMACEUTICAL Co., Ltd.) was used.
as §1, with “above” for “above low dose capsule formulation once a day by 4 capsules for 24 weeks (total 10 subjects, a low dose group: 100 mg/daily ingestion). On the other hand, each group consisting of five healthy males and females aged 50 to 70 years in the unbiased age group ingested the above”, “subjects,” for “subjects, a high dose group:”, “trials” for “trials,”
Measurement of the calcitonin quantity in the plasma was conducted by requesting the measurement to an external public organization according to a usual method. FIGS. 24a to 24c indicate transitions of the calcitonin concentration (pg/ml) in the plasma for 24 weeks. FIG. 24a represents the transitions of the whole subjects; FIG. 24b represents the transitions of the male subjects; FIG. 24c represents the transitions of the female subjects. Further, FIGS. 25a to 25c indicate change rates (%) of the blood calcitonin concentration up to 24 weeks when the nicotinamide mononucleotide was orally administered to the subjects for 24 weeks. FIG. 25a represents the change rates of the whole subjects; FIG. 25b represents the change rates of the male subjects; FIG. 25c represents the change rates of the female subjects. Further, Table 11 indicates the numerical values of the calcitonin concentration (pg/ml) in the plasma before the ingestion of the nicotinamide mononucleotide (0 weeks) and after the ingestion of the nicotinamide mononucleotide (24 weeks). Note that the numerical values represent mean values±standard deviation.

[3] = Female, High Dose Group (200 mg/daily, oral)
[4] = Female, Low Dose Group (100 mg/daily, oral)
[5] = Male, High Dose Group (200 mg/daily, oral)
[6] = Male, Low Dose Group (100 mg/daily, oral)
[7] = Whole Subjects, High Dose Group (200 mg/daily, oral)
[8] = Whole Subjects, Low Dose Group (100 mg/daily, oral)

NC(=O)c1ccc[n+]([C@@H]2O[C@H](COP(=O)([O-])O)[C@@H](O)[C@H]2O)c1 [nicotinamide mononucleotide]
melatonin concentration in the plasma, 0 weeks (before ingestion) [1, 3]: 5.77 ± 3.00 pg/mL | melatonin concentration in the plasma, 24 weeks (after ingestion) [1, 3]: 11.81 ± 8.17 pg/mL | melatonin concentration in the plasma, Change rate (24 weeks - 0 weeks) [1, 3]: 6.03 ± 5.90 pg/mL | melatonin concentration in the plasma, 0 weeks (before ingestion) [1, 4]: 7.15 ± 4.51 pg/mL | melatonin concentration in the plasma, 24 weeks (after ingestion) [1, 4]: 9.37 ± 4.85 pg/mL | melatonin concentration in the plasma, Change rate (24 weeks - 0 weeks) [1, 4]: 2.21 ± 3.19 pg/mL | melatonin concentration in the plasma, 0 weeks (before ingestion) [1, 5]: 3.82 ± 1.41 pg/mL | melatonin concentration in the plasma, 24 weeks (after ingestion) [1, 5]: 6.68 ± 4.04 pg/mL | melatonin concentration in the plasma, Change rate (24 weeks - 0 weeks) [1, 5]: 2.86 ± 3.10 pg/mL | melatonin concentration in the plasma, 0 weeks (before ingestion) [1, 6]: 2.76 ± 1.71 pg/mL | melatonin concentration in the plasma, 24 weeks (after ingestion) [1, 6]: 6.20 ± 3.60 pg/mL | melatonin concentration in the plasma, Change rate (24 weeks - 0 weeks) [1, 6]: 3.44 ± 3.57 pg/mL | melatonin concentration in the plasma, 0 weeks (before ingestion) [1, 7]: 4.80 ± 2.44 pg/mL | melatonin concentration in the plasma, Change rate (24 weeks - 0 weeks) [1, 7]: 4.45 ± 4.75 pg/mL | melatonin concentration in the plasma, 0 weeks (before ingestion) [1, 8]: 4.96 ± 3.96 pg/mL | melatonin concentration in the plasma, 24 weeks (after ingestion) [1, 8]: 7.78 ± 4.36 pg/mL | melatonin concentration in the plasma, Change rate (24 weeks - 0 weeks) [1, 8]: 2.82 ± 3.26 pg/mL | melatonin concentrations in the plasma compared to before ingestion, statistical significance ([1]; as a whole, both the low dose group and the high dose group, p<0.05): a significant difference was observed | melatonin concentrations in plasma, effect of ingestion (in words) ([1]; oral, 100 or 200 mg/daily, 24 weeks, FIGS. 2a-2c, 3a-3c): increased | calcitonin concentration in the plasma, 0 weeks (before ingestion) ([2]; Female): 0.60 ± 0.10 pg/mL | calcitonin concentration in the plasma, 24 weeks (after ingestion) ([2]; Female): 0.71 ± 0.20 pg/mL | calcitonin concentration in the plasma, Change rate (24 weeks - 0 weeks) ([2]; Female): 0.11 ± 0.10 pg/mL | calcitonin concentration in the plasma, 0 weeks (before ingestion) ([2]; Male): 2.35 ± 1.97 pg/mL | calcitonin concentration in the plasma, 24 weeks (after ingestion) ([2]; Male): 2.44 ± 2.21 pg/mL | calcitonin concentration in the plasma, Change rate (24 weeks - 0 weeks) ([2]; Male): 0.09 ± 0.37 pg/mL | calcitonin concentration in the plasma, 0 weeks (before ingestion) ([2]; Whole Subjects): 1.48 ± 1.61 pg/mL | calcitonin concentration in the plasma, 24 weeks (after ingestion) ([2]; Whole Subjects): 1.58 ± 1.74 pg/mL | calcitonin concentration in the plasma, Change rate (24 weeks - 0 weeks) ([2]; Whole Subjects): 0.10 ± 0.25 pg/mL | calcitonin concentrations in the plasma, effect of ingestion (in words) ([2]; oral, 200 mg/daily, 24 weeks, FIGS. 24a-24c, 25a-25c): increased
